The test system of the assay is T1, CpCDH (recombinant cellobiose dehydrogenase).
T1 construct: gene cdh; signal peptide (30 residues) excluded; CYT + linker + DH domains, no CBM1; pET-28a NdeI/NotI, C-terminal His tag avoided by stop codon (N-terminal His tag implied, HisTrap); E. coli BL21(DE3); 923 residues printed; forward primer starts MVEPRH; printed 2,772 bp PCR product fits poorly with residues 31-923
As to the kind of experiment: spectrophotometric DCPIP reduction at […] nm, Michaelis-Menten. The format is biochemical, Cellulomonas palmilytica. Particulars: DCPIP as electron acceptor; 50 mM sodium acetate pH 5.0; 25°C.

As usually defined, the Km is the concentration of substrate that gives half-maximal velocity. As to `OC[C@H]1O[C@@H](O[C@H]2[C@H](O)[C@@H](O)C(O)O[C@@H]2CO)[C@H](O)[C@@H](O)[C@@H]1O` (some centres unmarked) [Cellobiose], the Km was found to be 2.24 mM. For the compound `OC[C@H]1O[C@@H](O[C@H]2[C@H](O)[C@@H](O)C(O)O[C@@H]2CO)[C@H](O)[C@@H](O)[C@H]1O` (some centres unmarked) [Lactose], the Km is 6.93 mM.

The values above are taken from article PMC10940743, “Discovery of a Novel Cellobiose Dehydrogenase from Cellulomonas palmilytica EW123 and Its Sugar Acids Production” (Journal of Microbiology and Biotechnology, 2023).
